Consider one compound from EP0774458A1, “Substituted benzodicarboxylic acid diguanidines, process for their preparation, and their use as medicament or diagnostic agent” (HOECHST AKTIENGESELLSCHAFT, priority 1995, dated 1997).

This experiment deals with T1, Na^+/H^+-Exchangers von Kaninchenerythrocyten (Oryctolagus cuniculus, UniProt P23791).
T1 construct: den Na^+-Influx in die Erythrocyten via Na^+/H^+-Austausch flammenphotometrisch bestimmen zu können; from tissue; host or cells: Erythrocytes in whole blood from the ear arteries of cholesterol-fed White New Zealand rabbits (Ivanovas)
T1 sequence (P23791 whole entry): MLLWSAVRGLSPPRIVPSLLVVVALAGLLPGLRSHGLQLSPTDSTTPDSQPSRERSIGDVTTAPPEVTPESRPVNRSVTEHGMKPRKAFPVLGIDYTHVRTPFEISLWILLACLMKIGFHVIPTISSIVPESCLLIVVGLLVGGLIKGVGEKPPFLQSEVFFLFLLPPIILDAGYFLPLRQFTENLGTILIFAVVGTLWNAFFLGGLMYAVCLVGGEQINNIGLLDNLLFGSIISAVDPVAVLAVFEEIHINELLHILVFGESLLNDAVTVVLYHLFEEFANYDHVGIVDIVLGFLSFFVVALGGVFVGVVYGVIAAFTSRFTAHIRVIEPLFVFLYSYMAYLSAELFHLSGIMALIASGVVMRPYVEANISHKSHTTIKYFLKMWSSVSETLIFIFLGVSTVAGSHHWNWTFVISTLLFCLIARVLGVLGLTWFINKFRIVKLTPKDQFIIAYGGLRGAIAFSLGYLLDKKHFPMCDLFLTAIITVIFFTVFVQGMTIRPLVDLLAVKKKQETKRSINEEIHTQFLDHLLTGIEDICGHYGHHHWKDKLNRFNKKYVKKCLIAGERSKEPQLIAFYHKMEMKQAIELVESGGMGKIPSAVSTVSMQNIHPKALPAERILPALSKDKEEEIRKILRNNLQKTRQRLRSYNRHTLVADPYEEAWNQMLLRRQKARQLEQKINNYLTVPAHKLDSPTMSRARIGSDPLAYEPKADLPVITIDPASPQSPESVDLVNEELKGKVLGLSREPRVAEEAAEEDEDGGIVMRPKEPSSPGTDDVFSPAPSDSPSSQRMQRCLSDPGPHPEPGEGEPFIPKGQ
The experiment is described as follows: Inhibition of the Na+/H+ exchanger of rabbit erythrocytes (amiloride-sensitive sodium influx, flame photometry). The conditions noted are these: Inhibition des Na^+/H^+-Exchangers, hyperosmolares Salz-Sucrose-Medium, pH 7,4, 37°C. It counts as cell-based, Weiße Neuseeland-Kaninchen. An excerpt:
Inhibition des Na^+/H^+-Exchangers von Kaninchenerythrocyten Weiße Neuseeland-Kaninchen (Ivanovas) erhielten eine Standard-Diät mit 2 % Cholesterin für sechs Wochen, um den Na^+/H^+-Austausch zu aktivieren und so den Na^+-Influx in die Erythrocyten via Na^+/H^+-Austausch flammenphotometrisch bestimmen zu können. Das Blut wurde den Ohrarterien entnommen und durch 25 IE Kalium-Heparin ungerinnbar gemacht. Ein Teil jeder Probe wurde zur Doppelbestimmung des Hämatokrits durch Zentrifugieren benutzt. Aliquots von jeweils 100 µl dienten zur Messung des Na^+-Ausgangsgehalts der Erythrocyten.
Um den Amilorid-sensitiven Natrium-Influx zu bestimmen, wurden 100 µl jeder Blutprobe in jeweils 5 ml eines hyperosmolaren Salz-Sucrose-Mediums (mmol/l: 140 NaCl, 3 KCl, 150 Sucrose, 0,1 Ouabain, 20 Tris-hydroxymethylaminomethan) bei pH 7,4 und 37°C inkubiert. Die Erythrocyten wurden danach dreimal mit eiskalter MgCl2-Ouabain-Lösung (mmol/l: 112 MgCl2, 0,1 Ouabain) gewaschen und in 2,0 ml destilliertem Wasser hämolysiert. Der intrazelluläre Natriumgehalt wurde flammenphotometrisch bestimmt.
Der Na^+-Nettoinflux wurde aus der Differenz zwischen Natrium-Ausgangswerten und dem Natriumgehalt der Erythrocyten nach Inkubation errechnet. Der Amilorid-hemmbare Natrium-Influx ergab sich aus der Differenz des Natriumgehalts der Erythrocyten nach Inkubation mit und ohne Amilorid 3 x 10-4 mol/l. […]

As a reminder, the IC50 is the concentration needed to halve the response being measured. A high value points to a need for much substance. As to `NC(N)=NC(=O)c1cc(C(=O)N=C(N)N)c(Cl)c(-c2ccccc2)c1` [Beispiel 1, 4-Chlor-5-phenyl-isophthalsäure-diguanidid], the midpoint of inhibition, the IC50, lay at 900 µM.
